Test results reported in BigSolDB 2.1.

`C[C@H]1[C@H](C)CC[C@]2(C(=O)O)CC[C@]3(C)C(=CC[C@@H]4[C@@]5(C)CC[C@H](O)C(C)(C)[C@@H]5CC[C@]43C)[C@H]12` showed a solubility (mole fraction) (in MIBK, 278.2 K) of 0.00094, a solubility (mole fraction) (in MIBK, 283.2 K) of 0.00104 and a solubility (mole fraction) (in MIBK, 288.2 K) of 0.00106. For the same molecule, the solubility (mole fraction) (in MIBK, 293.2 K) was 0.00109, the solubility (mole fraction) (in MIBK, 298.2 K) was 0.00127 and the solubility (mole fraction) (in MIBK, 303.2 K) was 0.00128. The solubility (mole fraction) (in MIBK, 308.2 K) was 0.0015, the solubility (mole fraction) (in MIBK, 313.2 K) was 0.00169 and the solubility (mole fraction) (in MIBK, 318.2 K) was 0.00184. It also gave a solubility (mole fraction) (in MTBE, 278.2 K) of 0.00167, a solubility (mole fraction) (in MTBE, 283.2 K) of 0.00175 and a solubility (mole fraction) (in MTBE, 288.2 K) of 0.0021. For the same molecule, the solubility (mole fraction) (in MTBE, 293.2 K) was 0.00248, the solubility (mole fraction) (in MTBE, 298.2 K) was 0.00288 and the solubility (mole fraction) (in MTBE, 303.2 K) was 0.00305. It also gave a solubility (mole fraction) (in MTBE, 308.2 K) of 0.00311, a solubility (mole fraction) (in MTBE, 313.2 K) of 0.00315 and a solubility (mole fraction) (in MTBE, 318.2 K) of 0.00338. The solubility (mole fraction) (in n-butanol, 278.2 K) was 0.00153, the solubility (mole fraction) (in n-butanol, 283.2 K) was 0.00168 and the solubility (mole fraction) (in n-butanol, 288.2 K) was 0.00226. It also gave a solubility (mole fraction) (in n-butanol, 293.2 K) of 0.00266, a solubility (mole fraction) (in n-butanol, 298.2 K) of 0.00334 and a solubility (mole fraction) (in n-butanol, 303.2 K) of 0.00387. For the same molecule, the solubility (mole fraction) (in n-butanol, 308.2 K) was 0.00411, the solubility (mole fraction) (in n-butanol, 313.2 K) was 0.00466 and the solubility (mole fraction) (in n-butanol, 318.2 K) was 0.00504.
